From patent US20240139167A1, “LYSOSOME-ASSOCIATED MEMBRANE PROTEIN TARGETING COMPOUNDS AND USES THEREOF” (HADASIT MEDICAL RESEARCH SERVICES AND DEVELOPMENT LTD., priority 2021, published 2024)

Assays:
Gbe^ys/ys mice [1] = assay: Transmission electron microscopy of liver sections, lysosomal glycogen; assay type: in vivo; settings: 9.5 month old mice
Source text: FIGS. 6A-6E include bar graphs of autophagic flux, determined by the extent of lysosomal inhibitors-dependent increase in the ratio of lipidated to non-lipidated LC3 (LC3II/LC3I) (6A); representative TEM images of liver tissue from 9.5 month old Gbe^ys/ys mice treated with Compound 11, or 5% DMSO vehicle (6B), G: Glycogen (alpha particles) and polyglucosan (structures with variable electron densities), L: Lysosomes, M: Mitochondria; right panel: lysosomal glycogen stain was quantified by ImageJ “count particle” tool; micrograph of LAMP1 knocked down and control APBD primary skin fibroblasts treated or not with Compound 1 and lysosomal inhibitors (LI) and quantification of 3 experiments and results of Student's t-tests. *, p<0.1; **, p<0.05; ***, p<0.01 (6C); graphs of lysosomal pH changes determined in APBD primary fibroblasts transduced with lentiviruses encoding for GFP or GFP-shLAMP1 and treated or not with Compound 1 for 24 h and confocal microscope images of cells treated with Lysosensor and stained for PAS (6D); and bar graph of ATP production rate assay in LAMP1-KD and GFP (Control) cells treated for 24 h (chronic) or on assay (acute) with Compound 1 (6E).
Liver tissue was minced and fixed in a solution containing 2% paraformaldehyde, 2.5% glutaraldehyde (EM grade) in 0.1 M sodium cacodylate buffer pH 7.3 for 2 hours at RT, followed by 24 h at 4 ° C. […]

Gbe^ys/ys mice [2] = assay: In vivo metabolism in metabolic cages; settings: 9 months old mice
Procedure: FIGS. 3A-3I include a graph of the effect of Compound 1 on in vivo metabolism; mice were monitored by the Promethion High-Definition Behavioral Phenotyping System (Sable Instruments, Inc.) over a 24 hr period. Effective mass was calculated by power of 0.75. Data are mean±SEM from n=11 9 months old mice in the wt. control vehicle arm, n=6 9 months old mice in the GBE^ys/ys vehicle arm and n=7 9 months old mice in the Gbe^ys/ys 144DG11 (Compound 1)-treated arm. All injections were from the age of 4 months. […] Blood metabolic panel based on n=5, 9.5 months old mice treated as indicated (3I). Blood glucose was increased, and blood triglycerides decreased in Gbe^ys/ys […] by Compound 1 (p<0.05, Student's t-tests). *p<0.05 v wt. controls, #p<0.05 v GBE^ys/ys vehicle treated mice;
The effect of Compound 1 on various metabolic parameters was determined in vivo using metabolic cages. Fuel preference at the whole animal level is determined by the respiratory quotient (RQ, the ratio of CO2 produced to O2 consumed). Lower RQ indicates higher fat burn, while higher RQ indicates higher carbohydrate burn. […] Stimulation of ambulatory activity (FIG. 3E) and of meal size and water intake (FIGS. 3F-3H) are in line with this observation of stimulation of carbohydrate catabolism in affected animals by Compound 1. Moreover, put together, the increased fuel burning, and food intake indicate that Compound 1 can improve metabolic efficiency in the affected animals.

COCCN(Cc1sccc1C)C(=O)c1cc(C)nc(O)c1 [Compound 1]
lysosomal glycogen in liver sections (Gbe^ys/ys mice [1]): decrease in lysosomal glycogen
ambulatory activity (Gbe^ys/ys mice [2]): Stimulation
carbohydrate burning at the expense of fat burning (Gbe^ys/ys mice [2]): increases
meal size and water intake (Gbe^ys/ys mice [2]): Stimulation
total energy expenditure (Gbe^ys/ys mice [2]): increases
respiratory quotient (RQ) (Gbe^ys/ys mice [2]; injections from age 4 months): increased RQ to even higher levels than those of the wild type (wt) animals
